Patent US20160298129A1, “ALS INHIBITOR HERBICIDE TOLERANT MUTANT PLANTS” (BAYER CROPSCIENCE NV, priority 2013, published 2016)

Key:
[1] = biological target: AHAS P197S (Arabidopsis thaliana, UniProt P17597, E575Q/P197S); format: biochemical
Method: (§1) Bacteria are grown at 37° C. in LB-medium containing 100 mg/l carbenicillin and 25 mg/l canamycin, induced with 1 mM isopropyl-β-D-thiogalactopyranoside at an OD600 of 0.6, cultivated for 16 hours at 18° C. and harvested by, e.g., centrifugation. Bacterial pellets are resuspended in 100 mM sodium phosphate buffer pH 7.0 containing 0.1 mM thiamine-pyrophosphate, 1 mM MgCl2, and 1 μM FAD at a concentration of 1 gram wet weight per 25 ml of buffer and disrupted by, e.g., sonification. The crude protein extract obtained after centrifugation is used for ALS activity measurements.
(§2) ALS protein can be extracted from leaves or tissue cultures, such as B. napus or B. juncea leaves, or B. napus or B. juncea tissue cultures as described by Ray (Plant Physiol, 1984, 75:827-831). An ALS assays can be carried out in 96-well microtiter plates using a modification of the procedure described by Ray (1984): The reaction mixture contains 20 mM potassium phosphate buffer pH 7.0, 20 mM sodium pyruvate, 0.45 mM thiamine-pyrophosphate, 0.45 mM MgCl2, 9 μM FAD. ALS enzyme and various concentrations of ALS inhibitors can be mixed in a final volume of 90 μl Assays can be initiated by adding enzyme and the assays can be terminated after 75 min incubation at 30° C. by the addition of 40 μl 0.5 M H2SO4.

[2] = biological target: AHAS W574L (Arabidopsis thaliana, UniProt P17597, E575Q/W574L); format: biochemical
Method: as §1, §2

[3] = biological target: AHAS D376E (Arabidopsis thaliana, UniProt P17597, D376E/E575Q); assay: biochemical
Method: as §1, §2

[4] = biological target: AHAS D376E-W574L (Arabidopsis thaliana, UniProt P17597, D376E/E575Q/W574L); assay: biochemical
Method: as §1, §2

[5] = biological target: AHAS P197S-D376E (Arabidopsis thaliana, UniProt P17597, D376E/E575Q/P197S); assay: biochemical
Method: as §1, §2

[6] = biological target: AHAS P197S-D376E-W574L (Arabidopsis thaliana, UniProt P17597, D376E/E575Q/P197S/W574L); assay: biochemical
Method: as §1, §2

[7] = biological target: AHAS P197S-W574L (Arabidopsis thaliana, UniProt P17597, E575Q/P197S/W574L); assay: biochemical
Method: as §1, §2

[8] = biological target: AHAS WT (Arabidopsis thaliana, UniProt P17597); assay: biochemical
Method: as §1, §2

[9] = tested on: WT tissues (hypocotyl derived callus); assay: Callus culture on Foramsulfuron selection medium; format: cell-based, Brassica napus; details: 250 nM in M-338 [H76] medium
Method: Five day old seedlings were used for the preparation of hypocotyl segments 7-10 mm in length. Hypocotyl segments were transferred to 14 cm Petri plates containing 75 ml of M-338 [H76] callus induction medium (25 explants/plate). M-338 [H76] medium is MS salts and vitamins (Murashige and Skoog, 1962), 20 g/l sucrose, 0.5 g/l MES, 0.5 g/l adenine sulphate, 5 mg/l silver nitrate, 0.5 mg/l 2,4-D, 0.2 mg/l kinetin and solidified with 5.5 g/l agarose (pH 5.7). Dishes were sealed and cultured at 24° C. with standard light conditions (16 h/day). After 3 weeks, calli developing at the ends of the explants were transferred to fresh M-338 [H76] plates (25 calli/plate). Calli were subcultured to fresh medium every 3 weeks (larger calli cut into two pieces).
Hypocotyl derived callus (9 weeks old) was used for the selection of herbicide resistant mutants. […] Dishes were cultured at 24° C. with standard light conditions (16 h/day). After 3 weeks, the calli were divided into 2 pieces each and replated on M-338 [H76] medium containing 1.0 μM Foramsulfuron. Further increases in Foramsulfuron concentration (e.g. 1.5 μM, 2.0 μM, 2.5 μM, 3.0 μM or higher) were made each subculture until rapidly growing green (resistant) calli could clearly be identified from the brown non-resistant tissues.

[10] = biological target: AHAS WT (Arabidopsis thaliana, UniProt P17597, E575Q); assay: biochemical; details: AHAS WT
Method: as §1, §2

[11] = tested on: wild-type (WT) oilseed rape; assay: Field herbicide tolerance, visible phytotoxicity; format: in vivo, Brassica napus; details: gai/ha: imazamox 40, bispyribac-sodium 50, propoxycarbazone-sodium 70, mesosulfuron-methyl 60, pyroxsulam 12.5 + cloquintocet-mexyl 37.5, each + rapeseed oil methylated 366.5
[12] = tested on: oilseed rape homozygous for HETO133 and HETO134 (133-134); assay: Field herbicide tolerance, visible phytotoxicity (ALS I W574L, ALS III W574L); format: in vivo, Brassica napus; details: gai/ha: imazamox 40, bispyribac-sodium 50, propoxycarbazone-sodium 70, mesosulfuron-methyl 60, pyroxsulam 12.5 + cloquintocet-mexyl 37.5, each + rapeseed oil methylated 366.5
From the text: (§3) Seeds of spring oilseed rape homozygous for HETO139 and HETO134 were sown in a field according to typical practical agricultural methods together with seeds homozygous for HETO134 and HETO133 (comprising a W574L mutation on ALS III, which were obtained in the same way as HETO134), and with seeds homozygous for HETO134 and HETO132 (comprising a P197S and a W574L mutation on ALS III, which were obtained in essentially the same way as HETO139). Several ALS inhibitor herbicides were applied to the oilseed rape plants by using specific spray equipment for small plot applications.

[13] = tested on: oilseed rape homozygous for HETO132 and HETO134 (132-134); assay: Field herbicide tolerance, visible phytotoxicity (ALS I W574L, ALS III P197S-W574L); format: in vivo, Brassica napus; details: gai/ha: imazamox 40, bispyribac-sodium 50, propoxycarbazone-sodium 70, mesosulfuron-methyl 60, pyroxsulam 12.5 + cloquintocet-mexyl 37.5, each + rapeseed oil methylated 366.5
From the text: as §3

[14] = tested on: oilseed rape homozygous for HETO139 and HETO134 (139-134); assay: Field herbicide tolerance, visible phytotoxicity (ALS I W574L, ALS III P197S-D376E); format: in vivo, Brassica napus; details: gai/ha: imazamox 40, bispyribac-sodium 50, propoxycarbazone-sodium 70, mesosulfuron-methyl 60, pyroxsulam 12.5 + cloquintocet-mexyl 37.5, each + rapeseed oil methylated 366.5
From the text: as §3

AHAS D376E-W574L, sequence (P17597 56-670 D376E/W574L/E575Q): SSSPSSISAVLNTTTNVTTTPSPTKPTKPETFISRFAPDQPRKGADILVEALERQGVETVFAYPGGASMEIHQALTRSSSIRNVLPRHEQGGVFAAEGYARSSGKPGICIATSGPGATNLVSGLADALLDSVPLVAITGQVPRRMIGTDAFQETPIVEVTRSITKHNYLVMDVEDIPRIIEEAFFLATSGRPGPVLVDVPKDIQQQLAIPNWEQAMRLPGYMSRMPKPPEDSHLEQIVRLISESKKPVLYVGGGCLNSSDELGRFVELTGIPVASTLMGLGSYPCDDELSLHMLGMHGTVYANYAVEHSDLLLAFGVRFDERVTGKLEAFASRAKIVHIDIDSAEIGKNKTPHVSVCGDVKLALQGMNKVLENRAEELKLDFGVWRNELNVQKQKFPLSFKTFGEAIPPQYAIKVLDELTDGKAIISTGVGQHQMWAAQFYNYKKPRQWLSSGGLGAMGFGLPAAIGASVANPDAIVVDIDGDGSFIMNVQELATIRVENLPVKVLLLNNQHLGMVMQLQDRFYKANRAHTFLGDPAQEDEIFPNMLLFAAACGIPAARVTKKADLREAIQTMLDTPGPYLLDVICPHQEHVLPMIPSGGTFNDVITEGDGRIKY
AHAS D376E, sequence (P17597 56-670 D376E/E575Q): as the sequence (P17597 56-670 D376E/W574L/E575Q) above, with L519W counted along it
AHAS P197S-D376E-W574L, sequence (P17597 56-670 P197S/D376E/W574L/E575Q): as the sequence (P17597 56-670 D376E/W574L/E575Q) above, with P142S counted along it
AHAS W574L, sequence (P17597 56-670 W574L/E575Q): as the sequence (P17597 56-670 D376E/W574L/E575Q) above, with E321D counted along it
AHAS P197S-W574L, sequence (P17597 56-670 P197S/W574L/E575Q): as the sequence (P17597 56-670 D376E/W574L/E575Q) above, with P142S, E321D counted along it
AHAS P197S-D376E, sequence (P17597 56-670 P197S/D376E/E575Q): as the sequence (P17597 56-670 D376E/W574L/E575Q) above, with P142S, L519W counted along it
AHAS P197S, sequence (P17597 56-670 P197S/E575Q): as the sequence (P17597 56-670 D376E/W574L/E575Q) above, with P142S, E321D, L519W counted along it
AHAS WT (Arabidopsis thaliana, UniProt P17597), sequence (P17597 56-670 E575Q): as the sequence (P17597 56-670 D376E/W574L/E575Q) above, with E321D, L519W counted along it
AHAS WT (Arabidopsis thaliana, UniProt P17597, E575Q), sequence (P17597 56-670 E575Q): as the sequence (P17597 56-670 D376E/W574L/E575Q) above, with E321D, L519W counted along it

## COc1cc(OC)nc(NC(=O)NS(=O)(=O)c2cc(NC=O)ccc2C(=O)N(C)C)n1 [Foramsulfuron, foramsulfuron]
[1]
  Resistance Factor: 12
[2]
  Resistance Factor: 5888
[3]
  IC50: 31.6 µM
[3]; AHAS D376E
  Resistance Factor: 3715
[4]
  IC50: > 100 µM
[4]; AHAS D376E-W574L
  Resistance Factor: >11748
[5]
  IC50: > 100 µM
[5]; AHAS P197S-D376E
  Resistance Factor: >11748
[6]
  IC50: > 100 µM
[6]; AHAS P197S-D376E-W574L
  Resistance Factor: >11748
[7]
  IC50: > 100 µM
[7]; AHAS P197S-W574L
  Resistance Factor: >11748
[8]
  IC50: 0.00794 µM
[9]
  inhibition of callus tissues: clearly inhibitory

## COc1cc(OC)n2nc(NS(=O)(=O)c3c(C(F)(F)F)ccnc3OC)nc2n1 [Pyroxsulam, pyroxsulam]
[1]
  Resistance Factor: 261
  pI50: 6.2
[2]
  Resistance Factor: >41368
  pI50: <4
[3]; AHAS D376E
  Resistance Factor: 656
  pI50: 5.8
[4]; AHAS D376E-W574L
  Resistance Factor: >41368
  pI50: <4
[5]; AHAS P197S-D376E
  Resistance Factor: >41368
  pI50: <4
[6]; AHAS P197S-D376E-W574L
  Resistance Factor: >41368
  pI50: <4
[7]; AHAS P197S-W574L
  Resistance Factor: >41368
  pI50: <4
[10]
  pI50: 8.6
[11]; 9 DAA
  Percentage phytotoxicity: 76.7%
[11]; 16 DAA
  Percentage phytotoxicity: 98%
[11]; 24 DAA
  Percentage phytotoxicity: 98%
[12]; 9 DAA
  Percentage phytotoxicity: 13.3%
[12]; 16 DAA
  Percentage phytotoxicity: 17%
[12]; 24 DAA
  Percentage phytotoxicity: 15%
[13]; 9 DAA
  Percentage phytotoxicity: 13.3%
[13]; 16 DAA
  Percentage phytotoxicity: 16%
[13]; 24 DAA
  Percentage phytotoxicity: 5%
[14]; 9 DAA
  Percentage phytotoxicity: 10.7%
[14]; 16 DAA
  Percentage phytotoxicity: 16%
[14]; 24 DAA
  Percentage phytotoxicity: 10.7%
